Experimental data taken from PubChem BioAssay AID1794806 (Yongcheng Song lab at Baylor College of Medicine, 2022).
pEC50: −log10 of the molar value. The source made the active and inactive calls.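 Rule for the calls: active = EC50 under 50 µM in a live-cell viability test; inactive = the rest.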

tested on: HeLa proliferation, XTT absorbance; experiment: antiproliferative effect on HeLa control cancer cells – cell-based, XTT absorbance, selectivity assay for AHD inhibitor project, dose response (AID 1794806)

Compound | pEC50 | EC50
NC(=O)c1ccc(-c2ccc3cc(C(=O)NCC4CCNCC4)sc3c2)cc1 |  | > 51 µM (inactive)
O=C(NCC1CCNCC1)c1c[nH]c2cc(-c3ccc(N4CCCCC4)cc3)ccc12 |  | > 51 µM (inactive)
O=C(NCC1CCNCC1)c1cc2cc(-c3cn[nH]c3)ccc2[nH]1 |  | > 51 µM (inactive)
O=C(NCC1CCNCC1)c1c[nH]c2cc(-c3ccc(N4CCCC4)cc3)ccc12 |  | > 51 µM (inactive)
NCc1ccc(-c2ccc3cc(C(=O)NCC4CCNCC4)oc3c2)cc1 |  | > 51 µM (inactive)

Now from value to compound:

pEC50 | EC50 | Compound
4.30 |  | O=C(NCC1CCNCC1)c1cc2ccc(-c3ccc(N4CCCCC4)cc3)cc2s1
 | > 51 µM (inactive) | O=C(NCC1CCNCC1)c1cc2cc(-c3ccc(N4CCCCC4)cc3)ccc2[nH]1
4.60 |  | O=C(NCC1CCNCC1)c1cc2cc(-c3ccc(N4CCCCC4)cc3)ccc2s1
4.30 |  | O=C(NCC1CCNCC1)c1cc2ccc(-c3ccc(N4CCCC4)cc3)cc2s1
4.30 |  | O=C(NCC1CCNCC1)c1coc2cc(-c3ccc(N4CCCCC4)cc3)ccc12
